In patent publication US8394434B2, “SCF extract containing cardiac glycoside” (Phoenix Biotechnology, Inc., priority 2005, dated 2013):

Experiments:
[1] = tested on: Akt (pAkt) in Panc-1 cells; test: Phosphorylation of Akt, gel electropherogram (FIG. 3); assay type: cell-based, human
From the text: (§1) FIG. 3 depicts a photograph of the relevant bands of a gel electropherogram obtained as part of an assay comparing the activity of oleandrin, hot-water extract and the SCF extract of the invention toward inhibition of phosphoryation (active form) of Akt and augmentation of (phosphorylation) of Erk.
(§2) Phosphorylation of the serine/threonine kinase known as Akt provides tumor cells with enhanced survival capability. Increased Akt activity promotes survival of tumor cells that would normally undergo death by apoptosis. In addition, pAkt is involved in cell proliferation, angiogenesis, genome instability and cell invasion and migration (Yoeli-Lerner M and Toker A. Akt/PKB Signaling in Cancer. Cell Cycle 5:603-605, 2006). All of these responses contribute to initiation and progression. Further evidence of the importance of Akt signaling in cancer comes from studies which have detected over-expression and hyper-activation (through phosphorylation) of Akt in a wide range of human tumors, and this is often linked with poor prognosis. The relative activity of the hot-water and SCF extract on critical cell signaling proteins in human pancreatic cancer (Panc-1) cells were also compared. […] The relative ability of the supercritical CO2 extract to inhibit pAkt expression is much greater than that of oleandrin or the hot water extract of Nerium oleander. […]

[2] = tested on: Human pancreatic cancer PANC-1 cells; test: Cytotoxicity comparison, crystal violet staining (Example 10); assay type: cell-based; conditions: presented as μM oleandrin concentration in the extract, 72 hr incubation
Protocol: (§3) The extracts also differ in their relative performance as determined by efficacy against several tumor cell lines (Example 10). Oleandrin-containing samples were prepared to contain the same amount of oleandrin although the concentration of oleandrin in each sample varied due to the differences in the concentration of in the extracts. The data obtained are summarized in the table below and in FIGS. 4 and 5.
(§4) The cytotoxic potential of both extracts are compared directly with that of oleandrin. The samples contained the same amounts of oleandrin even though their concentration of oleandrin differed due to the concentration of oleandrin present in the extracts.
(§5) BRO (human melanoma) and Panc-1 (human pancreatic cancer) cells (8×10^3/well) were plated in a 96 well plate and allowed to attach overnight. Drug or extracts were then added to the cells. After 72 hr of incubation, relative cell proliferation (relative to control untreated cells) was assessed by crystal violet staining method.

Human melanoma BRO cells = test: as above; assay type: cell-based; conditions: presented as μM oleandrin concentration in the extract, 72 hr incubation
Protocol: as §3, §4, §5

PANC-1 cells = test: Cell cycle analysis by flow cytometry; assay type: cell-based, human; conditions: 25 nM oleandrin or extract equivalent to 25 nM oleandrin, 24 hrs
Protocol: The effect of oleandrin, the hot-water and SCF extract upon cell cycle changes of PANC-1 cells treated therewith was evaluated over a 24-hour period. Panc-1 cells were treated with 25 nM of oleandrin alone or the amount of hot water extract or supercritical CO2 extract of oleander which was equivalent to 25 nM of oleandrin for 24 hrs. Cell cycle analysis was carried out by flow cytometry. Cell division consists of two consecutive processes, mainly characterized by DNA replication and then segregation of replicated chromosomes into two separate cells. Replication of DNA occurs in a specific part of the interphase called S phase. S phase is preceded by a gap called G1 during which the cell is preparing for DNA synthesis. This is […] then followed by a gap called G2 during which the cell prepares for mitosis. Then this is followed with the mitosis phase, or M phase. G1, S, G2 and M phases are the traditional subdivisions of the standard cell cycle. Cells which are in a G2/M block such as that induced by the supercritical CO2 extract cannot undergo division.
The data are expressed as the relative percentage of cells in a given phase of the cell cycle.

[3] = tested on: ERK (pERK) in Panc-1 cells; test: Expression of pERK, gel electropherogram (FIG. 3); assay type: cell-based, human
From the text: as §1, §2

In the case of CO[C@H]1C[C@H](O[C@H]2CC[C@@]3(C)[C@H](CC[C@@H]4[C@@H]3CC[C@]3(C)[C@@H](C5=CC(=O)OC5)[C@@H](OC(C)=O)C[C@]43O)C2)O[C@@H](C)[C@@H]1O [Oleandrin, oleandrin], the “inhibition of PI3 Kinase resulting in reduction of phosphorylation of Akt” value [1] is reported as “reduction of phosphorylation of Akt”, the IC50 [2] is reported as 0.01 µM and the IC50 (Human melanoma BRO cells) is reported as 0.017 µM. For the same compound, the “G1 phase, relative percentage of cells” value (PANC-1 cells) was 30.5%, the “G2/M phase, relative percentage of cells” value (PANC-1 cells) was 26.2% and the “S phase, relative percentage of cells” value (PANC-1 cells) was 43.3%. The “expression of pERK” value [3] was “dramatically increased”.
